The target in series [1] is T1, human GLP1R (Homo sapiens, UniProt P43220). Description: Luciferase reporter assay, HEK293/CRE-Luc/hGLP1R cells (Example 11). It counts as cell-based. The note with it: Table 11; Experiment A. Set-up: engineered to express full-length human GLP1R, cynomolgus GLP1R; expressed in transfected cells; host or cells: HEK293/CRE-Luc. (In a reporter assay the amount or activity of a reporter protein is the signal.)

Series [2] can be described thus: Plasma stability of payloads and linker-payloads, human plasma. It counts as in vitro ADME. Summed up: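 Pooled plasma, pH adjusted to 7.4±0.1 where needed, spiked to 2 μM compound (duplicate) and incubated at 37 °C. At each time point, protein was precipitated with ACN/MeOH stop solution containing internal standards; remaining compound quantified in supernatant by LC-MS/MS.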

The test system of series [3] is HEK293/CRE-Luc cells. As to the kind of experiment: Luciferase reporter assay, HEK293/CRE-Luc cells without hGLP1R (Example 11). It counts as cell-based, human. Particulars: Table 11; Experiment A; no hGLP1R expression. The method in brief: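 Counter-screen in HEK293 cells carrying CRE-driven firefly luciferase without hGLP1R; 3-fold serial dilutions of payloads or linker-payloads at 0.2% final DMSO, 4–6 h.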

Series [4] relates to HEK293/CRE-Luc cells. Description: Luciferase reporter assay, HEK293/CRE-Luc cells without GLP1R (Example 17). It counts as cell-based, human. The method in brief:
(§1)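 HEK293 cells carrying a CRE-driven firefly luciferase reporter were exposed to 3-fold serial dilutions of payloads or linker-payloads (12 points, 0.2% DMSO final) for 4–6 h, then luminescence was read. EC50 came from a four-parameter logistic fit; S/N is top RLU over untreated wells, and relative potency and S/N are referenced to M2361.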

The target of series [5] is T1, human GLP1R. Description: Luciferase reporter assay, HEK293/CRE-Luc/hGLP1R (Example 17). Set-up: engineered to express full-length human GLP1R, cynomolgus GLP1R; expressed in transfected cells; host or cells: HEK293/CRE-Luc. The note with it: HEK293/CRE-Luc/hGLP1R; for EC50: payloads and linker-payloads, experiments A-E, M2361 repeated in each, read-out: EC50. It counts as cell-based. Summed up: as §1

Where [6] appears, read: HEK293/CRE-Luc cells without hGLP1R, payloads and linker-payloads.
Setting [7] is: HEK293/CRE-Luc cells without hGLP1R, payloads and linker-payloads, read-out: EC50.
[8] abbreviates: ATDCs and references (Table 27).
Where [9] appears, read: highest RLU / RLU of untreated wells.
Setting [10] is: relative to M2361 of the same experiment.

The structures appear in SMILES notation. Like-named read-outs stand apart in the source and are kept apart here. Where a SMILES comes first, the peptide text is derived from it. [ ]: non-standard residue; d: D form. The star is where a group is joined. Bip(2'-Et,4'-O(CH2)4NH2) = CCc1cc(OCCCCN)ccc1-c1ccc(C[C@H](N)C(=O)O)cc1; Malonyl(2,2-Me2,histaminyl) = CC(C)(C(=O)NCCc1cnc[nH]1)C(=O)*; Nva(5-(3,5-Me2Ph)) = Cc1cc(C)cc(CCC[C@H](N)C(=O)O)c1; Ala(1H-tetrazol-5-yl) = N[C@@H](Cc1nnn[nH]1)C(=O)O; αMePhe(2-F) = C[C@](N)(Cc1ccccc1F)C(=O)O

T1 sequence (P43220 24-463): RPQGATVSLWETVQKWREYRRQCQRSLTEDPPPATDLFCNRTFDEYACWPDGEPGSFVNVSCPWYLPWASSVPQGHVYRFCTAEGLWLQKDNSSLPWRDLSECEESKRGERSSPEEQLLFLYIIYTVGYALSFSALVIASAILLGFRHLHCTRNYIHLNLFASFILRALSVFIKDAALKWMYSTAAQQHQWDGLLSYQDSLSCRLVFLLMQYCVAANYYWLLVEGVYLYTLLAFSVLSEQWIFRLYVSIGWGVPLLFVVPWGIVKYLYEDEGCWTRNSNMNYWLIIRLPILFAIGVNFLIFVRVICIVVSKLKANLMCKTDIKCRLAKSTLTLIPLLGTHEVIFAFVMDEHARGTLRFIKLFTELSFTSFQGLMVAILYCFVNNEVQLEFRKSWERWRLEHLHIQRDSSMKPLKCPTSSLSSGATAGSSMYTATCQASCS

For the molecule `CCc1cc(OCCCCn2cc(COCCOCCOCCOCCOCCOCCOCCOCCN)nn2)ccc1-c1ccc(C[C@H](NC(=O)[C@H](CC(=O)O)NC(=O)[C@H](CO)NC(=O)[C@@H](NC(=O)C(C)(Cc2ccccc2F)NC(=O)[C@@H](NC(=O)CNC(=O)[C@H](Cc2nn[nH]n2)NC(=O)C(C)(C)C(=O)NCCc2cnc[nH]2)[C@@H](C)O)[C@@H](C)O)C(=O)N[C@@H](CCCc2cc(C)cc(C)c2)C(N)=O)cc1` (stereo partly drawn) [LP11, NH2-PEG8-triazole-P8], on human GLP1R [1], the EC50 turned out to be 16.1 pM, the “HEK293/CRE-LUC/hGLP1R Relative Potency (% P8 EC50)” value turned out to be 33.1%, the “HEK293/CRE-LUC/hGLP1R Relative Signal:Noise (% P8)” value came out at 113.3% and the “HEK293/CRE-LUC/hGLP1R S/N” value stood at 74.5. Also, in series [2] (pooled plasma, pH 7.4, Table 5C, read-out: Plasma Stability Human T½), the half-life at 2 µM was > 168 h. Besides, the half-life at 2 µM in series [2] (pooled plasma, pH 7.4, tested time C (3 days), 2 μM, 37° C., read-out: Human plasma stability assay T½ (converted)) is > 173 h. Besides, in the series on HEK293/CRE-Luc cells [3], the EC50 was > 200000 pM and the “HEK293/CRE-LUC S/N” value is given as 1.3.
Consider `CCc1cc(OCCCCn2cc(COCCOCCOCCOCCOCCOCCOCCOCCN)nn2)ccc1-c1ccc(C[C@H](NC(=O)[C@H](CC(=O)O)NC(=O)[C@H](CO)NC(=O)[C@@H](NC(=O)[C@](C)(Cc2ccccc2F)NC(=O)[C@@H](NC(=O)CNC(=O)[C@H](Cc2nn[nH]n2)NC(=O)C(C)(C)C(=O)NCCc2cnc[nH]2)[C@@H](C)O)[C@@H](C)O)C(=O)N[C@@H](CCCc2cc(C)cc(C)c2)C(N)=O)cc1` [M3190], for which the S/N in the series with HEK293/CRE-Luc cells [4] (HEK293/CRE-Luc cells without hGLP1R, ATDCs and references (Table 27)) turned out to be 1.3; in the series on HEK293/CRE-Luc cells [4] (setting [6]), 1.3; at human GLP1R [5] (setting [8]), 62.0; on human GLP1R [5] (setting [9]) it was 74.5. Besides, the EC50 in the series with HEK293/CRE-Luc cells [4] (HEK293/CRE-Luc cells without hGLP1R, ATDCs and references (Table 27), read-out: EC50) was > 20000 pM; in the series on HEK293/CRE-Luc cells [4] (setting [7]) it was > 200000 pM; with HEK293/CRE-Luc cells [4] (Table 28, reporter cells without GLP1R, read-out: HEK293/CRE-Luc EC50), > 200000 pM; with HEK293/CRE-Luc cells [4] (Table 29, reporter cells without GLP1R, read-out: HEK293/CRE-Luc EC50), > 30000 pM; on human GLP1R [5], 16.1 pM. Besides, the “Relative Potency (% M2361 EC50)” value amounted to 44.0% on human GLP1R [5] (setting [8]) and 33.1% on human GLP1R [5] (setting [10]). The “Relative Signal:Noise (% M2361)” value on human GLP1R [5] (setting [8]) was found to be 96.4%; at human GLP1R [5] (setting [10]) it was 113.3%.
Turning to `CCc1cc(OCCCCN)ccc1-c1ccc(C[C@H](NC(=O)[C@H](CC(=O)O)NC(=O)[C@H](CO)NC(=O)[C@@H](NC(=O)[C@](C)(Cc2ccccc2F)NC(=O)[C@@H](NC(=O)CNC(=O)[C@H](Cc2nn[nH]n2)NC(=O)C(C)(C)C(=O)NCCc2cnc[nH]2)[C@@H](C)O)[C@@H](C)O)C(=O)N[C@@H](CCCc2cc(C)cc(C)c2)C(N)=O)cc1` [P9, (8S,14S,17S,20S,23S,26S)-8-((2H-tetrazol-5-yl)methyl)-26-(((S)-1-(((S)-1-amino-5-(3,5-dimethylphenyl)-1-oxopentan-2-yl)amino)-3-(4′-(4-aminobutoxy)-2′-ethyl-[1,1′-biphenyl]-4-yl)-1-oxopropan-2-yl)carbamoyl)-17-(2-fluorobenzyl)-14,20-bis((R)-1-hydroxyethyl)-23-(hydroxymethyl)-1-(1H-imidazol-5-yl)-5,5,17-trimethyl-4,6,9,12,15,18,21,24-octaoxo-3,7,10,13,16,19,22,25-octaazaoctacosan-28-oic acid] ({Malonyl(2,2-Me2,histaminyl)}-[Ala(1H-tetrazol-5-yl)]GT[αMePhe(2-F)]TSD[Bip(2'-Et,4'-O(CH2)4NH2)][Nva(5-(3,5-Me2Ph))]-NH2), the S/N in the series with HEK293/CRE-Luc cells [4] (setting [6]) is reported as 1.3; at human GLP1R [5] (setting [9]), 75.2. In addition, the EC50 is > 200000 pM in the series on HEK293/CRE-Luc cells [4] (setting [7]), 3.97 pM at human GLP1R [1], 3.97 pM on human GLP1R [5] and > 200000 pM in the series on HEK293/CRE-Luc cells [3]. Besides, at human GLP1R [1], the “HEK293/CRE-LUC/hGLP1R Relative Potency (% P8 EC50)” value worked out at 133.8%. For the same molecule, the “HEK293/CRE-LUC/hGLP1R S/N” value at human GLP1R [1] is on record as 75.2. Moreover, the half-life at 2 µM in series [2] (plasma, pH 7.4, tested time A (1 day per footnote), 2 μM, 37° C., read-out: Human plasma stability assay T½ (converted)) was > 57.8 h. Further, the “Relative Potency (% M2361 EC50)” value on human GLP1R [5] (setting [10]) is on record as 133.8%. Also, the “Relative Signal:Noise (% M2361)” value on human GLP1R [5] (setting [10]) was determined as 114.3%. Moreover, the “HEK293/CRE-LUC S/N” value in the series with HEK293/CRE-Luc cells [3] is reported as 1.3.
